Several values for one entry are separate records, joined by “and”; a condition that tells them apart may be missing. Equal values may be shown once. Inconclusive results and toxic doses are left out. Rule as the data show it: active = T/C of 150% or more; inactive = T/C below 125%.
System: L1210 leukemia ip in BDF1 mice, survival T/C
Test: NCI In Vivo Anticancer Drug Screen. Data for tumor model L1210 Leukemia (intraperitoneal) in B6D2F1 (BDF1) mice
Conditions: endpoint: mean survival time, higher = longer survival
Method in brief: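 Transplanted-tumor mice were given test agent; controls received vehicle only. Survival readings from the two groups were divided (treated over control).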

[1] = dose: 100.0 mg/kg/injection, schedule: Q04DX003 (ip), vehicle: saline with Tween-80
[2] = dose: 200.0 mg/kg/injection, schedule: Q04DX003 (ip), vehicle: saline with Tween-80
[3] = dose: 400.0 mg/kg/injection, schedule: Q04DX003 (ip), vehicle: saline with Tween-80
[4] = dose: 100.0 mg/kg/injection, schedule: Q01DX001 (ip), vehicle: saline with Tween-80
[5] = dose: 200.0 mg/kg/injection, schedule: Q01DX001 (ip), vehicle: saline with Tween-80
[6] = dose: 400.0 mg/kg/injection, schedule: Q01DX001 (ip), vehicle: saline with Tween-80
[7] = dose: 100.0 mg/kg/injection, schedule: Q01DX001 (ip), vehicle: carboxymethylcellulose (CMC)
[8] = dose: 200.0 mg/kg/injection, schedule: Q01DX001 (ip), vehicle: carboxymethylcellulose (CMC)
[9] = dose: 400.0 mg/kg/injection, schedule: Q01DX001 (ip), vehicle: carboxymethylcellulose (CMC)
[10] = dose: 100.0 mg/kg/injection, schedule: Q01DX001 (ip), vehicle: saline
[11] = dose: 200.0 mg/kg/injection, schedule: Q01DX001 (ip), vehicle: saline
[12] = dose: 400.0 mg/kg/injection, schedule: Q01DX001 (ip), vehicle: saline
[13] = dose: 100.0 mg/kg/injection, schedule: Q04DX003 (ip), vehicle: Klucel (hydroxypropylcellulose) (HPC)
[14] = dose: 200.0 mg/kg/injection, schedule: Q04DX003 (ip), vehicle: Klucel (hydroxypropylcellulose) (HPC)

Measured: T/C

NCC(=O)c1ccc(OC(=O)c2ccccc2)cc1
inactive: dose: 100.0 mg/kg/injection, schedule: Q01DX009 (ip), vehicle: saline with Tween-80 92 % of control | [1] 95 % of control | dose: 200.0 mg/kg/injection, schedule: Q01DX009 (ip), vehicle: saline with Tween-80 94 % of control | [2] 95 % of control | dose: 400.0 mg/kg/injection, schedule: Q01DX009 (ip), vehicle: saline with Tween-80 103 % of control | [3] 96 % of control

CCOC(=O)CSc1nc2ccccc2[nH]1
inactive: [4] 97 % of control | [5] 98 % of control | [6] 93 % of control

c1ccc2c3nc4ccccc4c-3scc2c1
inactive: dose: 100.0 mg/kg/injection, schedule: Q01DX001 (ip), vehicle: acetone 100 % of control | dose: 200.0 mg/kg/injection, schedule: Q01DX001 (ip), vehicle: acetone 103 % of control

CCCCCCCC(=O)NN
inactive: dose: 25.0 mg/kg/injection, schedule: Q01DX009 (ip), vehicle: other 104 % of control | dose: 50.0 mg/kg/injection, schedule: Q01DX009 (ip), vehicle: carboxymethylcellulose (CMC) 89 % of control | dose: 50.0 mg/kg/injection, schedule: Q01DX009 (ip), vehicle: other 93 % of control | [7] 117 % of control | dose: 100.0 mg/kg/injection, schedule: Q01DX009 (ip), vehicle: carboxymethylcellulose (CMC) 86 % of control | dose: 100.0 mg/kg/injection, schedule: Q01DX009 (ip), vehicle: other 98 % of control | [8] 97 % of control | dose: 200.0 mg/kg/injection, schedule: Q01DX009 (ip), vehicle: other 107 % of control | [9] 95 % of control | dose: 400.0 mg/kg/injection, schedule: Q01DX009 (ip), vehicle: other 98 % of control

Cc1ccnc(NS(=O)(=O)c2ccc(N=Nc3ccc(O)c4ncccc34)cc2)n1
inactive: [10] 108 % of control | [11] 100 % of control | [12] 97 % of control

CCC(O)(/C(=N/Nc1ccc([N+](=O)[O-])cc1[N+](=O)[O-])c1ccccc1)c1ccccc1 (stereo unspecified)
inactive: [4] 94 % of control | [5] 89 % of control | [6] 89 % of control

O=S(=O)(c1ccc(NC(=S)NC(Cc2ccccc2)c2ccccc2)cc1)N1CCCCC1 (stereo unspecified)
inactive: dose: 100.0 mg/kg/injection, schedule: Q04DX003 (ip), vehicle: carboxymethylcellulose (CMC) 91 % of control | dose: 200.0 mg/kg/injection, schedule: Q04DX003 (ip), vehicle: carboxymethylcellulose (CMC) 89 % of control | dose: 400.0 mg/kg/injection, schedule: Q04DX003 (ip), vehicle: carboxymethylcellulose (CMC) 93 % of control

O=[N+]([O-])/C=C\c1ccc2c(c1)OCO2
inactive: dose: 25.0 mg/kg/injection, schedule: Q01DX009 (ip), vehicle: Klucel (hydroxypropylcellulose) (HPC) 87 % of control and 103 % of control | dose: 50.0 mg/kg/injection, schedule: Q01DX009 (ip), vehicle: Klucel (hydroxypropylcellulose) (HPC) 89 % of control and 100 % of control | [10] 106 % of control | dose: 100.0 mg/kg/injection, schedule: Q01DX009 (ip), vehicle: Klucel (hydroxypropylcellulose) (HPC) 103 % of control | [13] 102 % of control | [11] 119 % of control | [14] 97 % of control | [12] 97 % of control

N=C(N)SCc1ccc(Br)cc1
inactive: [10] 104 % of control | [11] 112 % of control

O=C(O)c1ccccc1Nc1cccc(C(F)(F)F)c1
inactive: [1] 104 % of control | [2] 104 % of control | [3] 104 % of control

CC[CH2][Ge]([CH2]CC)([CH2]CC)[O][Ge]([CH2]CC)([CH2]CC)[CH2]CC
inactive: dose: 50.0 mg/kg/injection, schedule: Q01DX001 (ip), vehicle: carboxymethylcellulose (CMC) 96 % of control | dose: 50.0 mg/kg/injection, schedule: Q01DX001 (ip), vehicle: saline 95 % of control | [7] 100 % of control | [10] 101 % of control | [8] 100 % of control | [11] 104 % of control | [9] 105 % of control

CC1=CC(=O)C(C)(C(Cl)Cl)C=C1 (stereo unspecified)
inactive: [1] 95 % of control | [2] 97 % of control

O=NN(CCCl)C(=O)NC(CCC(=O)O)C(=O)O (stereo unspecified)
inactive: dose: 13.0 mg/kg/injection, schedule: Q01DX001 (ip), vehicle: saline with Tween-80 123 % of control
active: dose: 67.0 mg/kg/injection, schedule: Q01DX001 (ip), vehicle: saline with Tween-80 200 % of control | [4] 261 % of control | dose: 150.0 mg/kg/injection, schedule: Q01DX001 (ip), vehicle: saline with Tween-80 331 % of control | dose: 224.0 mg/kg/injection, schedule: Q01DX001 (ip), vehicle: saline with Tween-80 331 % of control | dose: 335.0 mg/kg/injection, schedule: Q01DX001 (ip), vehicle: saline with Tween-80 192 % of control

CC1(C)N=C(N)N=C(N)N1c1cccc(OCCOc2ccc(N)cc2)c1
inactive: dose: 10.0 mg/kg/injection, schedule: Q01DX001 (ip), vehicle: saline 94 % of control | dose: 20.0 mg/kg/injection, schedule: Q01DX001 (ip), vehicle: saline 96 % of control | dose: 40.0 mg/kg/injection, schedule: Q01DX001 (ip), vehicle: saline 102 % of control

COc1ccc2c(=O)c(C)c(-c3ccccc3)oc2c1CN(C)C
inactive: dose: 0.19 mg/kg/injection, schedule: Q01DX009 (ip), vehicle: saline 96 % of control | dose: 0.39 mg/kg/injection, schedule: Q01DX009 (ip), vehicle: saline 112 % of control | dose: 0.78 mg/kg/injection, schedule: Q01DX009 (ip), vehicle: saline 110 % of control | dose: 0.78 mg/kg/injection, schedule: Q04DX003 (ip), vehicle: saline 100 % of control | dose: 1.56 mg/kg/injection, schedule: Q01DX009 (ip), vehicle: saline 112 % of control | dose: 1.56 mg/kg/injection, schedule: Q04DX003 (ip), vehicle: saline 94 % of control | dose: 3.12 mg/kg/injection, schedule: Q01DX009 (ip), vehicle: saline 108 % of control | dose: 3.12 mg/kg/injection, schedule: Q04DX003 (ip), vehicle: saline 93 % of control | dose: 5.0 mg/kg/injection, schedule: Q01DX001 (ip), vehicle: saline 103 % of control

COc1cc2c(cc1OC)C13CCN4CC5=CCOC6CCN2C1C6C5CC43 (stereo unspecified)
inactive: dose: 25.0 mg/kg/injection, schedule: Q04DX003 (ip), vehicle: saline 101 % of control | dose: 50.0 mg/kg/injection, schedule: Q04DX003 (ip), vehicle: saline 109 % of control | [1] 86 % of control | dose: 100.0 mg/kg/injection, schedule: Q04DX003 (ip), vehicle: saline 106 % of control

O=C1C(C2OC2c2ccccc2)CCCC1C1OC1c1ccccc1 (stereo unspecified)
inactive: dose: 100.0 mg/kg/injection, schedule: Q01DX009 (ip), vehicle: saline sonified 94 % of control | [13] 97 % of control | dose: 200.0 mg/kg/injection, schedule: Q01DX009 (ip), vehicle: saline sonified 97 % of control | [14] 98 % of control | dose: 400.0 mg/kg/injection, schedule: Q01DX009 (ip), vehicle: saline sonified 103 % of control | dose: 400.0 mg/kg/injection, schedule: Q04DX003 (ip), vehicle: Klucel (hydroxypropylcellulose) (HPC) 97 % of control

COC(/C=C/c1ccccc1)=N\S(=O)(=O)c1ccccc1
inactive: dose: 50.0 mg/kg/injection, schedule: Q01DX001 (ip), vehicle: Klucel (hydroxypropylcellulose) (HPC) 98 % of control | dose: 100.0 mg/kg/injection, schedule: Q01DX001 (ip), vehicle: Klucel (hydroxypropylcellulose) (HPC) 100 % of control | dose: 200.0 mg/kg/injection, schedule: Q01DX001 (ip), vehicle: Klucel (hydroxypropylcellulose) (HPC) 107 % of control

CCSCc1cnc(N)nc1-c1ccccc1
inactive: [1] 97 % of control | [2] 94 % of control | [3] 86 % of control

— PubChem BioAssay AID248 (DTP/NCI, 2004)
